Assay results published in patent US11155542B2, “Antimicrobial compounds, their use for the treatment of mammalian infections and a new metabolic mechanism” (priority 2016, dated 2021).
Values after ≈ are worked out from the molar mass of the structure shown.

Key:
[1] = test system: M. vaccae 10670; experiment: MIC M. vaccae 10670; type: cell-based; conditions: Mycolicibacterium vaccae
[2] = test system: Mtb H37Rv; experiment: Resazurin microtiter assay (REMA), MIC Mtb H37Rv; type: cell-based; conditions: Mycobacterium tuberculosis
[3] = Blank plasma from untreated animals spiked with BTZ043; type: in vitro ADME
Excerpt: It was therefore reasoned, that a possible explanation of this phenomenon would involve a yet unknown metabolite that was either thermally or oxidatively unstable when exposed to air.

[4] = type: in vitro ADME; conditions: 5 µg/mL
Experimental: Human: A BTZ043 solution in DMSO (5 mg/mL) was prepared and 1 μL of this solution was added to 1 mL aliquots fresh whole blood. The mixtures were shaken at 37° C. for 2 h or 16 h and centrifuged at 4° C. and 3000 rpm to yield plasma. Plasma samples (60 μL) were mixed with acetonitrile (240 μL) on ice, vortexed, treated in an ultrasonic bath (3-5 s) and centrifuged at 4° C. and 9750 rpm. The supernatants were concentrated with a nitrogen stream to a residual volume of approximately 40 μL and analyzed by HPLC and LC-HRMS.

[5] = Minipig plasma samples after oral BTZ043; type: in vivo, minipigs; conditions: plasma samples after incubation at room temperature, in some samples
Experimental: In order to reveal potentially overlooked metabolites, additional metabolic studies of BTZ043 were performed that incorporated careful analysis of highly resolved HPLC chromatograms of plasma samples after different incubation times at room temperature. To ensure maximum stability of the chromatographic conditions, all solvents were carefully degassed through vacuum treatment and/or sparging with nitrogen. […] The concomitant drastic increase of the BTZ043 peak area (in some samples >100%) emphasized the significance of this transient metabolite. […] It was suspected that this metabolite could be formed through an enzymatic reduction of BTZ043 and that it is unstable towards oxygen from air.
Minipig plasma samples: Minipigs received oral doses of 360 mg/kg BTZ043. Blood was collected 2 h subsequent to administration of the compound formulation, immediately cooled on ice and centrifuged at 4° C. and 3000 rpm to yield plasma aliquots which were snap frozen and stored at −80° C. Plasma aliquots (50 μL) were mixed with acetonitrile (200 μL) on ice and under inert conditions (Don Whitley Scientific, anaerobic workstation), vortexed, treated in an ultrasonic bath (3-5 s) and centrifuged at 4° C. and 9750 rpm. The supernatants were concentrated with a nitrogen stream to a residual volume of approximately 40 μL and analyzed by HPLC and LC-HRMS.

[6] = Cytotoxicity determination (HeLa); type: cell-based; conditions: human, HeLa cells (DSM ACC 57)
Experimental: The test items were dissolved in DMSO (typically 10 mg/mL, less soluble compounds lower). The solutions were diluted in RPMI 1640 medium. HeLa cells (DSM ACC 57) were grown in RPMI 1640 and harvested at the logarithmic growth phase after soft trypsinization using 0.25% trypsin in phosphate buffered saline (PBS) containing 0.02% ethylenediaminetetraacetic acid (EDTA). For each experiment, approximately 10,000 cells were seeded with 0.1 mL culture medium per well of the 96-well microplates. HeLa cells were pre-incubated for 48 h prior to the addition of the test compounds (final DMSO concentration ≤0.5%), which were carefully diluted on the subconfluent monolayers. Incubation was then conducted in a humidified atmosphere at 37° C. and 5% CO2. The adherent HeLa cells were fixed by glutaraldehyde and stained with a 0.05% solution of methylene blue for 10 min. After gently washing, the stain was eluted with 0.2 mL of 0.33 N HCl in the wells. The optical densities were measured at 660 nm in a SUNRISE microplate reader (TECAN).

[7] = test system: M. marinum; experiment: MIC M. marinum; type: cell-based; conditions: Mycobacterium marinum
[8] = Chemical stability and solubility of Meisenheimer complexes and methylated derivatives; conditions: room temperature
[9] = Fresh blood assay, mice; type: in vitro ADME, C57BL/6J mice; conditions: in vitro incubation of fresh whole blood, HPLC-HRMS
Experimental: Mice: Fresh whole blood was collected from C57BL/6J mice after cervical dislocation under isoflurane anesthesia. Test item solutions were prepared in DMSO (5 mg/mL) and 0.4 μL of this solution was added to 400 μL fresh whole blood. The mixtures were incubated at 37° C. for 4 h and centrifuged at 4° C. and 3000 rpm to yield plasma. Plasma samples (50 μL) were mixed with acetonitrile (200 μL) on ice, vortexed, treated in an ultrasonic bath (3-5 s) and centrifuged at 4° C. and 9750 rpm. The supernatants were concentrated with a nitrogen stream to a residual volume of approximately 40 μL and analyzed by HPLC and LC-HRMS.

C[C@H]1COC2(CCN(c3nc(=O)c4cc(C(F)(F)F)cc([N+](=O)[O-])c4s3)CC2)O1 [BTZ043, (S)-2-(2-methyl-1,4-dioxa-8-azaspiro[4.5]decan-8-yl)-8-nitro-6-(trifluoro-methyl)-4H-1,3-benzothiazin-4-one, reference compound]
MIC [1]: < 1.2 ng/mL | MIC [2]: 1 ng/mL (≈ 0.00232 µM) | Peak areas of BTZ043 in spiked blank plasma over time [3]: remained completely unchanged over time | Transformation of BTZ043 to 5b in fresh whole human blood [4]: transformation of BTZ043 to 5b after several hours | Increase of the BTZ043 peak area in plasma samples over time [5]: > 100% | CC50 [6]: > 50 µg/mL | MIC [7]: 4 ng/mL (≈ 0.00927 µM)

COC1=C2CC(C(F)(F)F)=CC([N+](=O)[O-])=C2SC(N2CCC3(CC2)OC[C@H](C)O3)=N1 [Compound 6b]
Solubility and stability of the methylated derivatives [8]: sufficiently soluble and stable at room temperature

Cc1c(C(F)(F)F)cc([N+](=O)[O-])c2sc(N3CCC4(CC3)OC[C@H](C)O4)nc(=O)c12 [Example 9b, (S)-5-Methyl-2-(2-methyl-1,4-dioxa-8-azaspiro[4.5]decan-8-yl)-8-nitro-6-(trifluoromethyl)-4H-1,3-benzothiazin-4-one]
MIC [1]: < 1.2 ng/mL | MIC [2]: 8 ng/mL (≈ 0.018 µM) | Formation of the Meisenheimer complex (reduced form) in the blood assay [9]: could only be detected in trace amounts | CC50 [6]: > 50 µg/mL | MIC [7]: 8 ng/mL (≈ 0.018 µM)

Cc1c(C(F)(F)F)cc([N+](=O)[O-])c2sc(N3CCN(CC4CCCCC4)CC3)nc(=O)c12 [Example 16, 2-(4-(Cyclohexylmethyl)piperazin-1-yl)-5-methyl-8-nitro-6-(trifluoromethyl)-4H-1,3-benzothiazin-4-one]
MIC [1]: < 1.2 ng/mL | MIC [2]: 0.5 ng/mL (≈ 0.00106 µM) | CC50 [6]: > 25 µg/mL | MIC [7]: 1 ng/mL (≈ 0.00213 µM)

Cc1c(C(F)(F)F)cc2c(=O)nc(N3CCC4(CC3)OC[C@H](C)O4)sc2c1[N+](=O)[O-] [Example 9a, (S)-7-Methyl-2-(2-methyl-1,4-dioxa-8-azaspiro[4.5]decan-8-yl)-8-nitro-6-(trifluoromethyl)-4H-1,3-benzothiazin-4-one]
MIC [1]: 39 ng/mL (≈ 0.0876 µM) | MIC [2]: 500 ng/mL (≈ 1.12 µM) | Formation of the Meisenheimer complex (reduced form) in the blood assay [9]: formed only fairly detectable amounts of the Meisenheimer complex | CC50 [6]: 38.9 µg/mL (≈ 87.3 µM) | MIC [7]: 250 ng/mL (≈ 0.561 µM)

COC1=C2C=C(C(F)(F)F)CC([N+](=O)[O-])=C2SC(N2CCC3(CC2)OC[C@H](C)O3)=N1 [Compound 6a]
Solubility and stability of the methylated derivatives [8]: sufficiently soluble and stable at room temperature
